Assay results taken from patent publication US20090298691A1, “METHODS AND COMPOSITIONS FOR CONTROL OF AQUATIC WEEDS USING HERBICIDAL COMBINATIONS WITH FLURIDONE” (priority 2008, published 2009).

Assays:
jointed spikerush = test: Example 7: greenhouse mesocosm selectivity trial, 60-day exposure, aboveground shoot biomass; type: in vivo, Eleocharis interstincta; conditions: total parts per billion, non-linear regression
Description: (§1) Five different native aquatic plants were acquired from a Florida supplier (Aquatic Plants of Florida, Sarasota, Fla.). These species were jointed spikerush (Eleocharis interstincta), spatterdock (Nuphar advena), soft-stem bulrush (Scirpus validus), and maidencane (Panicum hemitomon), and tapegrass (Vallisneria americana). The final native species in the trial—Egyptian panicgrass or Kissimmee ‘Knotgrass’ (Paspalidium geminatum)—and fluridone-resistant hydrilla were collected from West Lake Tohopekaliga (Osceola County, FL). Transplanted tissue for each native species included both young fresh shoot growth and a portion of root stock/rhizome. Hydrilla was planted as 30 cm sections of fresh apical shoot growth. All plants were transplanted into commercial retail topsoil amended with slow-release granular 14-14-14 fertilizer at rate of 2.5 g fertilizer per kg soil. Spatterdock rhizomes were transplanted into 11.4L plastic garden pots, while all other species were transplanted into 1.9-L pots. Soil in each pot was capped with a layer of sand. […]
(§2) Three weeks after transplanting, herbicide stock solutions were used to apply either fluridone or penoxsulam alone or in combination. […] Four replicate pots of each species were harvested at time of treatment to quantify pre-treatment aboveground biomass. […]

spatterdock = test: as above; type: in vivo, Nuphar advena; conditions: total parts per billion, non-linear regression
Description: as §1, §2

[1] = test system: panicgrass (Egyptian panicgrass, Kissimmee 'Knotgrass'); test: as above; type: in vivo, Paspalidium geminatum; conditions: total parts per billion, non-linear regression
Description: as §1, §2

[2] = test system: Lake Okahumpka hydrilla (fluridone resistant biotype); test: Example 1: hydrilla in 14 L cylinders, 25 days of exposure, total stem length and fresh weight; type: in vivo, Hydrilla verticillata; conditions: 12 ppb (combination 6 ppb each)
Description: (§3) Apical sections of hydrilla were collected from Rainbow River and Lake Okahumpka, Fla. Hydrilla in Lake Okahumpka is known to have developed increased tolerance to fluridone (FRH). The biotype from Rainbow River has never been exposed to fluridone and is presumably fluridone susceptible. Apical sections were planted in potting soil amended with Osmocote fertilizer in small pots (13.5 cm length×3.75 cm diameter). A 2.54 cm sand layer was placed over the top of the potting soil. Pots containing each biotype of hydrilla were placed into 14 L acrylic cylinders and allowed to establish slight growth prior to treatment. Cylinders were then treated with penoxsulam (P) or fluridone (F) at 12 ppb, and fluridone+penoxsulam (1:1 ratio) at 6 ppb (3 ppb each) and 12 ppb (6 ppb each). All treatments were replicated 4 times. After 25 days of exposure, plants were harvested and total stem length and fresh weights were measured.

target plant = conditions: Sonar A.S. label; cited from earlier work
tapegrass = test: Example 7: greenhouse mesocosm selectivity trial, 60-day exposure, aboveground shoot biomass; type: in vivo, Vallisneria americana; conditions: total parts per billion, non-linear regression
Description: as §1, §2

[3] = test system: fluridone susceptible hydrilla biotype; test: Example 3: hydrilla in 14 L cylinders, 56 days exposure, dry weights; type: in vivo, Hydrilla verticillata; conditions: 3 ppb
Description: (§4) Hydrilla was collected from two sources in Florida representing a fluridone resistant biotype (Lake Cypress) and a fluridone susceptible biotype. Apical sections containing a single meristem were planted in small pots (13.5 cm length×3.75 cm diameter) containing potting soil and amended with Osmocote fertilizer. Each biotype were placed into 14 L cylinders and allowed to establish growth prior to treatment. Treatments were replicated three times and included: controls, penoxsulam or fluridone at 3 and 6 ppb; combinations of fluridone+penoxsulam (1:1 ratio) at 6 ppb (3 ppb of each). Plants were exposed for 56 days and then harvested to determine dry weights. At 14 days after treatment (DAT) net photosynthesis from exposed plant tissue was measured.

[4] = test system: fluridone resistant hydrilla biotype (Lake Cypress); test: as above; type: in vivo, Hydrilla verticillata; conditions: 3 ppb
Description: as §4

soft-stem bulrush = test: Example 7: greenhouse mesocosm selectivity trial, 60-day exposure, aboveground shoot biomass; type: in vivo, Scirpus validus; conditions: total parts per billion, non-linear regression
Description: as §1, §2

[5] = test system: Hydrilla (FR), fluridone-resistant hydrilla; test: as above; type: in vivo, Hydrilla verticillata; conditions: total parts per billion, non-linear regression
Description: as §1, §2

[6] = test system: CAIP hydrilla (fluridone susceptible biotype); test: Example 2: hydrilla in 14 L cylinders, c.a. 30 days exposure, plant weights; type: in vivo, Hydrilla verticillata; conditions: 6 ppb
Description: (§5) Hydrilla was collected from three sources in Florida; two representing fluridone resistant biotypes (Lake Okahumpka and Lake Cypress) and one fluridone susceptible biotypes (CAIP). Apical sections containing a single meristem were planted in small pots (13.5 cm length×3.75 cm diameter) containing potting soil and amended with Osmocote fertilizer. Each biotype were placed into 14 L cylinders and allowed to establish growth for 6-days prior to treatment. Treatments were replicated three times and included: controls, penoxsulam 6 and 12 ppb; fluridone 6 and 12 ppb; combinations of fluridone+penoxsulam (1:1 ratio) at 12 ppb (6 ppb each). Plants were exposed for c.a. 30 days and then harvested to determine plant weights.

[7] = test system: Lake Okahumpka hydrilla (fluridone resistant biotype); test: as above; type: in vivo, Hydrilla verticillata; conditions: for biomass reduction: 6 ppb
Description: as §5

[8] = test system: Lake Cypress hydrilla (fluridone resistant biotype); test: as above; type: in vivo, Hydrilla verticillata; conditions: for biomass reduction: 6 ppb
Description: as §5

maidencane = test: Example 7: greenhouse mesocosm selectivity trial, 60-day exposure, aboveground shoot biomass; type: in vivo, Panicum hemitomon; conditions: total parts per billion, non-linear regression
Description: as §1, §2

hydrilla [9] = conditions: literature; cited from earlier work
hydrilla [10] = test: Contact time of penoxsulam alone under operational field use; type: in vivo, Hydrilla verticillata
[11] = test system: Rainbow River hydrilla (fluridone susceptible); test: Example 1: hydrilla in 14 L cylinders, 25 days of exposure, total stem length and fresh weight; type: in vivo; conditions: Hydrilla verticillata, 600 h, 12 ppb (combination 6 ppb each), read-out: stem length inhibited compared to control plants
Description: as §3

Eurasian watermilfoil = test: Example 5: Eurasian watermilfoil in 12 L tanks, 40 day exposure, root and shoot dry weights; type: in vivo; conditions: 75 ppb; 40 days
Description: Apical sections (12 to 15 cm in length) of Eurasian watermilfoil (EWM) were taken from Sweetwater Lake, Ind. and from culture and planted into small pots (13.5 cm length×3.75 cm diameter) containing Wallace Farm® topsoil amended with 14-14-14 slow release Osmocote® fertilizer (˜2.5 g Osmocote/kg soil). Approximately 5 to 7 cm of the apical section extended above the sediment at planting, and a sand cap was placed over the potting soil (˜2 cm deep). Plants were then transferred to a 12 L acrylic tanks filled with well water. Plants were allowed to grow for 7 days before the following treatment was initiated in triple replicate:
Plants were harvested at 40 days. At harvest, plants were rinsed free of algae, roots and shoots were separated, and placed in paper sacks in a drying oven for 4 days at 70° C. temperature, and dry weights were determined (FIG. 6).

Molecule	Calculated EC50 on shoot biomass (jointed spikerush) [ppb]	Calculated EC50 on shoot biomass (spatterdock) [ppb]	Calculated EC50 on shoot biomass [1] [ppb]	Calculated EC50 on shoot biomass (tapegrass) [ppb]	reduction in biomass compared to controls [3] [%]	reduction in biomass compared to controls [4]	Calculated EC50 on shoot biomass (soft-stem bulrush) [ppb]	Calculated EC50 on shoot biomass [5] [ppb]	biomass reduction [6] [%]	biomass reduction [7]	biomass reduction [8]	Calculated EC50 on shoot biomass (maidencane) [ppb]	also measured
1-methyl-3-phenyl-5-3-(trifluoromethyl)phenyl-4(1H)-pyridinone [Fluridone]	28.3	2.5	14.4	4.4	~50	no effect	5.3	10.1	60	minimal affect	minimal affect	4.4	effect on fluridone tolerant biotype (stem length, biomass), in words [2]: little effect; stem length inhibited compared to control plants [2]: ~10%; minimum time maintained in contact with a target plant (target plant): ≥ 45 days; effect on biomass, in words ([7]; up to 12 ppb): generally not affected; effect on biomass, in words ([8]; up to 12 ppb): generally not affected
O=C(O)C1C2CCC(O2)C1C(=O)O (centres unmarked) [Endothall, 7-oxabicyclo[2.2.1]heptane-2,3-dicarboxylic acid]													contact with hydrilla to achieve effective control (hydrilla [9]): less than 72 hours
COc1cnc(OC)n2nc(NS(=O)(=O)c3c(OCC(F)F)cccc3C(F)(F)F)nc12 [Penoxsulam]	12.8	12.5	267.6	9.6	~40	~40%	8.9	4.4	63	53%	57%	52.5	contact time to achieve full hydrilla control (hydrilla [10]): greater than 4 months; inhibition at 0.012 ppm ([2]; Hydrilla verticillata, 600 h, read-out: stem length inhibited compared to control plants): ~40%; inhibition at 0.012 ppm [11]: 50 to 60%
O=C(O)COc1nc(Cl)c(Cl)cc1Cl [Triclopyr, 3,5,6-trichloro-2-pyridyloxyacetic acid]													above ground biomass reduction (Eurasian watermilfoil): 96%; below ground biomass reduction (Eurasian watermilfoil): 74%
